Laboratory results as given in publication PMC4215638, “J-147 a Novel Hydrazide Lead Compound to Treat Neurodegeneration: CeeTox™ Safety and Genotoxicity Analysis” (Journal of neurology & neurophysiology, 2013).

Columns and labels:
[1] = test system: rat hepatoma (H4IIE) cell line; test: CeeTox cell mass (cell number), propidium iodide fluorescence; format: cell-based; conditions: H4IIE cells; for Cell Number TC50: 24hour analysis endpoint, cell number (or mass)
Protocol: (§1) All Ceetox assays utilizing the rat hepatoma (H4IIE) cell line as the test system were conducted by CeeTox Inc Kalamazoo, MI. Ceetox assays are described in detail by McKim and Lapchak and according to a Standard Operating Procedure (SOP).
(§2) Rat hepatoma derived H4IIE cells were used as the test system because the cell have a rapid doubling time in culture (i.e. 22 hours). The culture medium used for these cells was Eagles Minimum Essential Medium (MEM) with 10% bovine serum and 10% calf serum (Invitrogen). H4IIE cells were seeded into 96-well plates and allowed to equilibrate for approximately 48 hr before drug assay to allow cells to move into a stable growth phase prior to treatment. Following the equilibration period the cells were exposed to J-147 at concentrations of 1–300 μM. Three to 7 replicates were done for each assay to construct concentration-response curves. Solubility was determined by Nephalometry techniques immediately after dosing and prior to harvesting the cells at 6 or 24 hr. Following the incubation period, cells or their supernatant (culture medium) were analyzed for changes in cell proliferation (cell mass), membrane leakage, mitochondrial function, oxidative stress, and apoptosis. The resultant exposure concentration response curves were graphed and analyzed for determining the concentration that produced a half maximal response or TC50 [28, 30].
Cell mass in each well was measured with a modified propidium iodide (PI), a specific nucleic acid binding dye that fluoresces when intercalated within the nucleic acids. The 15nm shift enhances PI fluorescence approximately 20 times while the excitation maxima are shifted 30–40nm. Triton-X-100 was used to permeabilize the H4IIE cells thereby allowing the PI access to intracellular RNA and DNA. Fluorescence was measured using a Packard Fusion plate reader at 540 nm excitation and 610 nm emission. Data is collected as relative fluorescent units (RFU) and expressed as percent change relative to control;

[2] = test system: P-glycoprotein (PgP); test: P-glycoprotein (PgP) binding using the MTT assay with and without cyclosporin A; format: cell-based, rat; set-up: key to % Difference (PgP interaction ranking): NC=No change; conditions: for % Control (Compound + CSA) / % Control (Compound): MTT, H4IIE cells, single exposure concentration (50 μM), 24-hr; for % Control (Compound + CSA): with cyclosporin A; for % Control (Compound): without CSA; for % Difference (PgP interaction ranking): difference in the absence and presence of CSA
Protocol: For this assay, cells are incubated with and without cyclosporin A (CSA) (a PgP inhibitor) at a single exposure concentration (50 μM) and the difference in toxicity determined with the MTT assay. Compounds with increased toxicity in the presence of CSA have a high probability of binding to PgP proteins. However, compounds of low toxicity will typically not show a difference relative to the addition of CSA, regardless of whether they bind to PgP. At the end of the 24-hr exposure period the culture medium was removed and the remaining attached cells were assayed for their ability to reduce MTT. Viable cells will have the greatest amount of MTT reduction and highest absorbance values. Percent control values were determined by dividing the mean absorbance/fluorescence of the treatment group by the mean absorbance of the control group and multiplying by 100.

[3] = test system: rat hepatoma (H4IIE) cell line; test: Lipid peroxidation measured as 8-isoprostane ELISA; format: cell-based; set-up: key to Membrane Lipid Peroxidation: 0=No Change; 1=Modest increase with maximum values<15 pg/mL; 2=Concentration related increase with maximum values>15 pg/mL; 3=Concentration related increase with a maximum value>30 pg/mL; conditions: H4IIE cells; for Membrane Lipid Peroxidation: 8-isoprostane score
Protocol: as §2
8-ISO levels were determined using an ELISA (Cayman Chemical Inc). 8-ISO is a member of a family of eicosanoids produced nonenzymatically by random oxidation of tissue phospholipids by oxygen radicals. Therefore, an increase in 8-ISO is an indirect measure of increased lipid peroxidation. At the end of the exposure period, plates were either analyzed immediately or stored at −80°C until needed for analysis. Color development, which is […] proportional to the amount of 8-ISO present in the sample, was read on a Packard Fusion or equivalent plate reader at 415 nm. Background absorbance produced from Ellman’s reagent is subtracted from all wells. Non-specific binding is subtracted from the maximum binding wells to give a corrected maximum binding expressed as Bo. The percent of bound (B) relative to maximum binding capacity (Bo) for all unknown samples and for standards was determined an expressed as (%B/Bo). The %B/Bo for standards was plotted against the log of 8-ISO added to yield the final standard curve. This curve was used to convert %B/Bo to pg 8-ISO/mL of sample.

[4] = test system: rat hepatoma (H4IIE) cell line; test: CeeTox cellular ATP content, luciferin/luciferase; format: cell-based; conditions: H4IIE cells, 24-hr exposure
Protocol: as §1, §2
Adenosine triphosphate (ATP) content was determined using a modification of a standard luciferin/luciferase luminescence assay based on a reaction between ATP + D-luciferin + oxygen catalyzed by luciferase to yield Oxyluciferin + AMP + PPi + CO2 + light. The emitted light is proportional to the amount of ATP present. […] Plates were analyzed immediately or stored at −20°C until needed. […] ATP was quantified by adding ATP substrate solution and then reading luminescence on a Packard Fusion Luminescence reader. […] Background corrected luminescence was used to determine percent change relative to controls by dividing treated values by control values and multiplying by 100.

[5] = test system: rat hepatoma (H4IIE) cell line; test: CeeTox MTT reduction assay; format: cell-based; conditions: H4IIE cells, 24hour
Protocol: as §1, §2
(§3) The presence of α-Glutathione S-transferase (α-GST), an enzyme leakage marker, was measured in the culture medium using an ELISA assay purchased from Argutus Medical. […] Absorbance values were measured with a Packard SpectraCount™ reader at 450 nm and reference absorbance at 650 nm. Leakage of α-GST from the cell into the culture medium was determined by collecting the culture medium at the end of the exposure period. Thus, the values measured represent total enzyme leakage lost over the exposure period. […] Sample absorbance was read at 570 nm and reference absorbance at 650 nm with a Packard Fusion reader. […]

[6] = test system: rat hepatoma (H4IIE) cell line; test: CeeTox membrane toxicity, α-GST leakage ELISA; format: cell-based; conditions: H4IIE cells, 24hour; membrane toxicity measured using GST leakage
Protocol: as §1, §2, §3

Structure (SMILES): CC[C@@]1(O)C(=O)OCc2c1cc1n(c2=O)Cc2cc3ccccc3nc2-1 [Camptothecin, camptothecin]
- Cell Number TC50 [1]: 600 nM
- % Control (Compound + CSA) [2]: 85.3%
- % Control (Compound) [2]: 76.6%
- % Difference (PgP interaction ranking) [2]: NC
- Membrane Lipid Peroxidation [3]: 1 (1=Modest increase with maximum values<15 pg/mL)
- ATP TC50 [4]: 300 nM
- MTT TC50 [5]: 500 nM
- Mem Tox TC50 [6]: >300000 nM

Structure (SMILES): COc1cccc(/C=N/N(C(=O)C(F)(F)F)c2ccc(C)cc2C)c1 [J-147, (E)-N-(2,4-Dimethylphenyl)-2,2,2-trifluoro-N′-(3-methoxybenzylidene) acetohydrazide]
- Cell Number TC50 [1]: 293000 nM
- Concentration range with decrease in cell proliferation ([1]; prior to effects on other markers, in the absence of cell death): 20 to 100 µM
- % Control (Compound + CSA) [2]: 92.1%
- % Control (Compound) [2]: 93.7%
- Interaction with Permeability-glycoprotein ([2]; cells incubated with and without CSA, 50 μM): low interaction
- % Difference (PgP interaction ranking) [2]: NC
- Effect on 8-isoprostane [3]: did not have any effect
- Membrane Lipid Peroxidation [3]: 0
- ATP TC50 [4]: 210000 nM
- MTT TC50 [5]: 228000 nM
- Mem Tox TC50 [6]: >300000 nM

Structure (SMILES): C=C(C)[C@H]1Cc2c(ccc3c2O[C@@H]2COc4cc(OC)c(OC)cc4[C@@H]2C3=O)O1 [Rotenone, rotenone]
- Cell Number TC50 [1]: 40 nM
- % Control (Compound + CSA) [2]: 86.1%
- % Control (Compound) [2]: 80.5%
- % Difference (PgP interaction ranking) [2]: NC
- Membrane Lipid Peroxidation [3]: 0
- ATP TC50 [4]: 50 nM
- MTT TC50 [5]: 70 nM
- Mem Tox TC50 [6]: 930 nM
